Assay results: patent publication US4822800A (Ortho Pharmaceutical Corporation, priority 1986, dated 1989)
“Also recorded” adds a separate entry of the source. Read-outs that look alike come from different tables or passages of the source.

Columns and labels:
adult mongrel dogs [1] = test: acute in vivo cardiotonic activity in anesthetized dogs; design: species or system dog (adult mongrel); conditions: for change in vivo at 0.025 mg/kg / change in vivo at 0.375 mg/kg: Canis lupus familiaris, cardiotonic, relative to controls; for change in vivo at 0.025 mg/kg: dose 0.025 mg/kg intravenous; for cardiotonic activity (in words): summary of Table 4; for change in vivo at 0.375 mg/kg: dose 0.375 mg/kg intravenous
How it was run: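 Pentobarbital-anaesthetised, artificially respired mongrel dogs received compound by intravenous infusion or oral bolus. Recordings covered femoral arterial pressure, heart rate, LV dP/dt max (Millar catheter), aortic flow cardiac output, right-ventricular contractile force (strain gauge) and lead II ECG. Dopamine 10 μg/kg/min checked responsiveness; dose-related changes were expressed as % of pretreatment values and rated.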

[2] = biological target: T1, Phosphodiesterase fraction III (Canis lupus familiaris, UniProt A0A8I3NYE0); test: inhibition of phosphodiesterase fraction III activity; assay type: biochemical, canine (heart); conditions: for IC50: cyclic AMP 0.10-1.0 uM, pH 7.4, canine heart enzyme; for phosphodiesterase fraction III inhibition (in words): summary of Table 5
T1 construct: isolated as an isozyme from the crude canine heart homogenate; from tissue; host or cells: canine heart (crude homogenate, ion exchange chromatography, third and last PDE peak)
T1 sequence (A0A8I3NYE0 1-1135): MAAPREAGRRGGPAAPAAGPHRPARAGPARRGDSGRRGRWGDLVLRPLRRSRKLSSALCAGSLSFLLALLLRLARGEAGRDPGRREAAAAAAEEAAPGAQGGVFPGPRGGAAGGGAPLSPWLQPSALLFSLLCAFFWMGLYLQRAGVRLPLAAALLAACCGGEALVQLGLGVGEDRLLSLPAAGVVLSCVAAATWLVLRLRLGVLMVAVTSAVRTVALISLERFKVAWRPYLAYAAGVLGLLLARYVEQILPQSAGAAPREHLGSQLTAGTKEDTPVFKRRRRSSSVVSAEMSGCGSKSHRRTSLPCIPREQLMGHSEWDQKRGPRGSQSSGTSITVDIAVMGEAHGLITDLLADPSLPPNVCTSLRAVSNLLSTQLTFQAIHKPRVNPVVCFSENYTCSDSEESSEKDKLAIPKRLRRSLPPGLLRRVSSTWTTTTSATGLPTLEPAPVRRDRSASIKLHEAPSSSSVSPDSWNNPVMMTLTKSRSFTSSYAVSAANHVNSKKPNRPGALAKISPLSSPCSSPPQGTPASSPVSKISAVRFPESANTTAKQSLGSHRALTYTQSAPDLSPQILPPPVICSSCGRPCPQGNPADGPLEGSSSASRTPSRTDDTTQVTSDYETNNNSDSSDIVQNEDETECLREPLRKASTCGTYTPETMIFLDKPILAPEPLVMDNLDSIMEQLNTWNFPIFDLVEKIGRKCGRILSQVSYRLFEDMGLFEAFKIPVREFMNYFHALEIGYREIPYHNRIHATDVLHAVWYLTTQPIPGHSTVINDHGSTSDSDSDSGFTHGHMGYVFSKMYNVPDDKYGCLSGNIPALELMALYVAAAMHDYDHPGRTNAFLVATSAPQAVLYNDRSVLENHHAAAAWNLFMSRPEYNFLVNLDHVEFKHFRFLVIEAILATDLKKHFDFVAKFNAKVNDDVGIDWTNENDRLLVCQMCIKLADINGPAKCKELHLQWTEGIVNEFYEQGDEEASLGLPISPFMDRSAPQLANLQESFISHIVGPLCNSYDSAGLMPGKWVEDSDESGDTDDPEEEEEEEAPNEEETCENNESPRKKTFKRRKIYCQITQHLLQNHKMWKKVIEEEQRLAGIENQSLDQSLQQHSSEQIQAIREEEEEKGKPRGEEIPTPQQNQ

adult mongrel dogs [3] = test: renal vasodilating activity in anesthetized dogs; assay type: in vivo, dog (adult mongrel); conditions: for change in vivo at 1.2 mg/kg: dose 1.2 mg/kg intravenous; for renal vasodilating activity (in words): summary of Table 4
How it was run: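 In anesthetized mongrel dogs, compounds infused IV at rising (usually three-fold) rates, 5 min per dose, after a dopamine check (3 μg/kg/min, 10 min). Renal artery flow measured electromagnetically, pressure via carotid cannula; values are maximal % change from pre-drug control in RBF, RVR (MABP/flow), MABP and HR.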

[4] = read-out: MABP (mean arterial blood pressure)
[5] = read-out: dP/dt (maximum change left ventricular pressure with time)

Molecule `CCc1c(O)nc(C)c2cc(OC)c(OC)cc12` [Compound Z, 4-ethyl-3-hydroxy-6,7-dimethoxy-1-methylisoquinoline] has a change in vivo at 0.025 mg/kg (adult mongrel dogs [1]; read-out: CF (cardiac force)) of 143%, a change in vivo at 0.025 mg/kg (adult mongrel dogs [1]; read-out: HR (heart rate)) of 13% and a change in vivo at 0.025 mg/kg (adult mongrel dogs [1]; [4]) of -12%. The change in vivo at 0.025 mg/kg (adult mongrel dogs [1]; [5]) was 98%, the “cardiotonic activity (in words)” value (adult mongrel dogs [1]) was “cardiotonic properties” and the IC50 [2] was 2.4 µM. The “phosphodiesterase fraction III inhibition (in words)” value [2] was “inhibit phosphodiesterase fraction III activity; also recorded: phosphodiesterase fraction III inhibiting properties”, the change in vivo at 1.2 mg/kg (adult mongrel dogs [3]; Canis lupus familiaris, renal vasodilator, relative to controls, read-out: RBF (renal blood flow)) was 10% and the change in vivo at 1.2 mg/kg (adult mongrel dogs [3]; Canis lupus familiaris, renal vasodilator, relative to controls, read-out: RVR (renal vascular resistance)) was -38%. The “renal vasodilating activity (in words)” value (adult mongrel dogs [3]) was “renal vasodilating properties”.

`CCCc1c(O)nc(C)c2cc(OC)c(OC)cc12` [Y] was tested, and the change in vivo at 0.375 mg/kg (adult mongrel dogs [1]; read-out: CF (cardiac force)) was 84%, the change in vivo at 0.375 mg/kg (adult mongrel dogs [1]; read-out: HR (heart rate)) was 12% and the change in vivo at 0.375 mg/kg (adult mongrel dogs [1]; [4]) was -16%. The change in vivo at 0.375 mg/kg (adult mongrel dogs [1]; [5]) was 44%, the “cardiotonic activity (in words)” value (adult mongrel dogs [1]) was “cardiotonic properties” and the IC50 [2] was 5 µM. The “phosphodiesterase fraction III inhibition (in words)” value [2] was “inhibit phosphodiesterase fraction III activity; also recorded: phosphodiesterase fraction III inhibiting properties”, the change in vivo at 13.9 mg/kg (adult mongrel dogs [3]; Canis lupus familiaris, renal vasodilator, dose 13.9 mg/kg intravenous, relative to controls, read-out: RBF (renal blood flow)) was 10% and the change in vivo at up to 13.9 mg/kg (adult mongrel dogs [3]; Canis lupus familiaris, renal vasodilator, dose 13.9 mg/kg intravenous, relative to controls, read-out: RVR (renal vascular resistance)) was -13%. For the same molecule, the “renal vasodilating activity (in words)” value (adult mongrel dogs [3]) was “renal vasodilating properties”.
